Reference: ChEMBL document CHEMBL5120912, “Structure Revision of Trichomide D by Total Synthesis” (J Nat Prod, 2022)

How the values were obtained:
Assay type in all cases: functional, cell-based
HeLa S3 = assay: Cytotoxicity against human HeLa S3 cells assessed as inhibition of cell growth incubated for 72 hrs by MTT assay; conditions: HeLa S3, 72 h
MCF7 [1] = assay: Cytotoxicity against human MCF7 cells assessed as inhibition of cell growth incubated for 72 hrs by MTT assay; conditions: MCF7, 72 h
HL-60 = assay: Cytotoxicity against human HL-60 cells assessed as inhibition of cell growth incubated for 24 hrs by MTT assay; conditions: HL-60, 24 h
SW480 = assay: Cytotoxicity against human SW480 cells assessed as inhibition of cell growth incubated for 24 hrs by MTT assay; conditions: SW480, 24 h
MCF7 [2] = assay: Cytotoxicity against human MCF7 cells assessed as inhibition of cell growth incubated for 24 hrs by MTT assay; conditions: MCF7, 24 h

Compound | IC50 (HeLa S3) [µM] | IC50 (MCF7 [1]) [µM] | IC50 (HL-60) [µM] | IC50 (SW480) [µM] | IC50 (MCF7 [2]) [µM]
CO[C@@]12[C@H](COC(N)=O)C3=C(C(=O)C(C)=C(N)C3=O)N1C[C@@H]1N[C@@H]12 [MITOMYCIN] | 0.52 | 1.8 |  |  | 
CC[C@H](C)[C@@H]1NC(=O)[C@@H]2[C@@H](C)CCN2C(=O)[C@@H](C[C@H](O)CO)OC(=O)CCNC(=O)[C@H](C)N(C)C(=O)[C@H]([C@@H](C)CC)N(C)C1=O | > 10 | > 10 |  |  | 
CC[C@H](C)[C@@H]1NC(=O)[C@@H]2[C@@H](C)CCN2C(=O)[C@@H](C[C@@H](O)CCl)OC(=O)CCNC(=O)[C@H](C)N(C)C(=O)[C@H]([C@@H](C)CC)N(C)C1=O | 0.4 | 2.8 | 0.149 | 0.107 | 0.079
CC[C@H](C)[C@@H]1NC(=O)[C@@H]2[C@@H](C)CCN2C(=O)[C@@H](C[C@H](O)CCl)OC(=O)CCNC(=O)[C@H](C)N(C)C(=O)[C@H]([C@@H](C)CC)N(C)C1=O | 0.031 | 0.34 |  |  | 
